Measurements as given in patent publication US10507228B2, “Methods and compositions related to KRAS inhibitors” (priority 2015, dated 2019).
Positions of bridges follow the written chain, without caps; N, C: chain ends. Non-standard residues stand in square brackets, D forms with d. Residues, ends and D or L forms follow the SMILES beside them. ξ: configuration not given here. ξK = NCCCCC(N)C(=O)O; ξA = CC(N)C(=O)O

Target: T1, mt G12D KRas binding to GST-RBD (Raf Ras binding domain) (Homo sapiens, UniProt P01116, G12D)
T1 construct: expressed in transfected cells; host or cells: NIH-3T3 cells (lysate)
Experiment: GST-RBD pulldown assay
Details: lysates of NIH-3T3 cells that ectopically express G12D KRas; compared to DMSO control; FIG. 1B
Experimental: Several stapled peptides such as FY-A-100-1 and 2 have been made (see FIG. 1A) that were designed based on the helical domain (78-92, LHDCLMKALKVRGLQ) (SEQ ID NO. 1) of Raf RBD (Ras binding domain). The synthesis was conducted on solid phase. In GST-RBD pulldown assays, FY-A-100-1 was potent at inhibiting the ability of GST-RBD to bind mt G12D KRas from lysates of NIH-3T3 cells that ectopically express G12D KRas (FIG. 1B). […] Furthermore, FY-A-90-1A, which is identical to FY-A-100-1 except for having a “CH2” shorter side chain of residue 82 that forms the staple, was not active.

Row | SMILES | inhibiting the ability of GST-RBD to bind mt G12D KRas
1 | CSCC[C@@H]1NC(=O)[C@@H](NC(=O)[C@H](CS)NC(=O)[C@H](CC(=O)O)NC(=O)[C@H](Cc2cnc[nH]2)NC(=O)[C@@H](N)CC(C)C)CC(=O)NCCCC[C@@H](C(=O)NC(CCCCN)C(=O)N[C@H](C(=O)N[C@@H](CCCNC(=N)N)C(=O)NCC(=O)N[C@@H](CC(C)C)C(=O)N[C@@H](CCC(N)=O)C(N)=O)C(C)C)NC(=O)C(CCCCN)NC(=O)[C@H](CCCCN)NC1=O (stereo partly drawn) [FY-A-90-1A] (H-LHDCDMK[ξK]K[ξK]VRGLQ-NH2; lactam 5-9) | not active
2 | CSCC[C@H](NC(=O)[C@H](CC(=O)O)NC(=O)[C@H](CS)NC(=O)[C@H](CC(=O)O)NC(=O)[C@H](Cc1cnc[nH]1)NC(=O)[C@@H](N)CC(C)C)C(=O)N[C@@H](CCCCN)C(=O)NC(CCCCN)C(=O)N[C@@H](CCCCN)C(=O)NC(CCCCN)C(=O)N[C@H](C(=O)N[C@@H](CCCNC(=N)N)C(=O)NCC(=O)N[C@@H](CC(C)C)C(=O)N[C@@H](CCC(N)=O)C(N)=O)C(C)C (stereo partly drawn) [FY-A-90-1B] (H-LHDCDMK[ξK]K[ξK]VRGLQ-NH2) | little activity
3 | CSCC[C@@H]1NC(=O)[C@@H](NC(=O)[C@H](CS)NC(=O)[C@H](CC(=O)O)NC(=O)[C@H](Cc2cnc[nH]2)NC(=O)[C@@H](N)CC(C)C)CC(=O)NCCCC[C@@H](C(=O)NC(CCCCN)C(=O)N[C@H](C(=O)N[C@@H](CCCNC(=N)N)C(=O)NCC(=O)N[C@@H](CC(C)C)C(=O)N[C@@H](CCC(N)=O)C(N)=O)C(C)C)NC(=O)C(C)NC(=O)[C@H](CCCCN)NC1=O (stereo partly drawn) [FY-A-90-2A] (H-LHDCDMK[ξA]K[ξK]VRGLQ-NH2; lactam 5-9) | little activity
4 | CSCC[C@H](NC(=O)[C@H](CC(=O)O)NC(=O)[C@H](CS)NC(=O)[C@H](CC(=O)O)NC(=O)[C@H](Cc1cnc[nH]1)NC(=O)[C@@H](N)CC(C)C)C(=O)N[C@@H](CCCCN)C(=O)NC(C)C(=O)N[C@@H](CCCCN)C(=O)NC(CCCCN)C(=O)N[C@H](C(=O)N[C@@H](CCCNC(=N)N)C(=O)NCC(=O)N[C@@H](CC(C)C)C(=O)N[C@@H](CCC(N)=O)C(N)=O)C(C)C (stereo partly drawn) [FY-A-90-2B] (H-LHDCDMK[ξA]K[ξK]VRGLQ-NH2) | little activity
5 | CSCC[C@@H]1NC(=O)[C@@H](NC(=O)[C@H](CS)NC(=O)[C@H](CC(=O)O)NC(=O)[C@H](Cc2cnc[nH]2)NC(=O)[C@@H](N)CC(C)C)CCC(=O)NCCCC[C@@H](C(=O)N[C@@H](CCCCN)C(=O)N[C@H](C(=O)N[C@@H](CCCNC(=N)N)C(=O)NCC(=O)N[C@@H](CC(C)C)C(=O)N[C@@H](CCC(N)=O)C(N)=O)C(C)C)NC(=O)[C@H](CCCCN)NC(=O)[C@H](CCCCN)NC1=O [FY-A-100-1] (H-LHDCEMKKKKVRGLQ-NH2; lactam 5-9) | potent
6 | CSCC[C@@H]1NC(=O)[C@@H](NC(=O)[C@H](CS)NC(=O)[C@H](CC(=O)O)NC(=O)[C@H](Cc2cnc[nH]2)NC(=O)[C@@H](N)CC(C)C)CCC(=O)NCCCC[C@@H](C(=O)N[C@@H](CCCCN)C(=O)N[C@H](C(=O)N[C@@H](CCCNC(=N)N)C(=O)NCC(=O)N[C@@H](CC(C)C)C(=O)N[C@@H](CCC(N)=O)C(N)=O)C(C)C)NC(=O)C(C)NC(=O)[C@H](CCCCN)NC1=O (stereo partly drawn) [FY-A-100-2] (H-LHDCEMK[ξA]KKVRGLQ-NH2; lactam 5-9) | less potent
